The target of one assay is T1, α2-adrenoceptor (Rattus norvegicus, UniProt P22909).
T1 sequence (P22909 1-465): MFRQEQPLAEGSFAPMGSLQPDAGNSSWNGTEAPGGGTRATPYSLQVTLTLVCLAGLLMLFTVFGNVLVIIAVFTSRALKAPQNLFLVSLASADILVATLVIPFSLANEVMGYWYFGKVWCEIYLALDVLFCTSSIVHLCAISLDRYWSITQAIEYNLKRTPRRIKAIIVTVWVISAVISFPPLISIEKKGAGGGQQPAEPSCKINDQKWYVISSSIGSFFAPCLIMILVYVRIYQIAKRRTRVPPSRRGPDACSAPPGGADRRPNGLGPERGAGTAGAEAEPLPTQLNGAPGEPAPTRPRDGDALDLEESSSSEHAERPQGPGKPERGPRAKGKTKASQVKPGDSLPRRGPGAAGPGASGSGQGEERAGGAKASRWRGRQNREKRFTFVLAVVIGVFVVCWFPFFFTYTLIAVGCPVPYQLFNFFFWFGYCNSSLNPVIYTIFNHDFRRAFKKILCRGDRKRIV
Description: Competitive radioligand-binding assay, [3H]clonidine. The conditions noted are these: ADRA2, experiments 1-3, duplicates. As to the method:
(§1) 10 mM stock solutions of test compounds were prepared in DMSO. Serial dilutions of compounds were prepared in 96-well microplate in assay buffers using an automated pipetting system epMotion 5070 (Eppendorf, Poland). Each compound was tested in 6 concentrations of 1.0E-05 to 1.0E-10 M (final concentration).
(§2) Affinity towards α1- and α2-adrenoceptors was evaluated using the competitive radioligand-binding assay. Experiments were conducted in the rat cerebral cortex. Radioligand [3H]prazosin (84,2 Ci/mmol, α1-adrenoceptor, PerkinElmer, Poland, NET823001MC) and [3H]clonidine (70.5 Ci/mmol, α2-adrenoceptor, PerkinElmer, Poland, NET613250UC) were used. The membrane preparation and the assay procedure were carried out accordingly as previously published. Radioactivity was counted on the MicroBeta2 scintillation counter (PerkinElmer, Poland). Data were fitted to a one-site curve-fitting equation with Prism 8 (GraphPad Software, USA), and Ki values were estimated from the Cheng–Prusoff equation.

Another assay has as its target T2, α2A-adrenoceptor (Homo sapiens, UniProt P08913).
T2 sequence (P08913 1-465): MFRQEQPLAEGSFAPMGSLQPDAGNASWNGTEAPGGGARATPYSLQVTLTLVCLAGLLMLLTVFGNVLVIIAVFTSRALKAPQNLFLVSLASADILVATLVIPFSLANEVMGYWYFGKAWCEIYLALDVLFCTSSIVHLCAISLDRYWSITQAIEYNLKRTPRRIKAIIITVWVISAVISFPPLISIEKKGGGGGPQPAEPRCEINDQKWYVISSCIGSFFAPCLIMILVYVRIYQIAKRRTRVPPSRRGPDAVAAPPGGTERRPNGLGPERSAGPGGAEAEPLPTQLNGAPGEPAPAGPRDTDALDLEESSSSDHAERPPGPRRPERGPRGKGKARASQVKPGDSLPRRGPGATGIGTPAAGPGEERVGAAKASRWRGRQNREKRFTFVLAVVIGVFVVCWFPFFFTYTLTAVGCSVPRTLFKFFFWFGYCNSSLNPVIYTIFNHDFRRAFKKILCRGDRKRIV
Description: Intrinsic activity, Tango beta-lactamase reporter assay. In kind it is cell-based. The note with it: ADRAA2A. The method, then: The intrinsic activity at α2A-adrenoceptor was assessed by the Tango assay technology that uses a mammalian-optimized beta-lactamase (bla) reporter gene combined with an FRET-enabled substrate to provide reliable and sensitive detection in cells. Cells are loaded with an engineered fluorescent substrate containing two fluorophores, coumarin, and fluorescein. In the absence of bla expression, the substrate molecule remains intact. In this state, excitation of the coumarin results in a transfer of fluorescence resonance energy to the fluorescein moiety and emission of green fluorescent light. However, in the presence of bla expression, the substrate is cleaved, separating the fluorophores and disrupting energy transfer. Excitation of the coumarin in the presence of bla enzyme activity results in a blue fluorescence signal.
Intrinsic activity assay was performed according to the manufacturer of the assay kit (Invitrogen, Life Technologies). Cells were harvested and resuspended in an assay medium at a density of 312,500 cells/ml. 32 μL per well of cell suspension was added to the test compound wells, the unstimulated control wells, and the stimulated control wells, and incubated for 16–24 h. To perform an agonist assay, 8 μL of 5 × of agonist in the assay medium was added to the cells. […] Then, the agonist and antagonist plates were incubated in a humidified incubator at 37 °C/5% CO2 for 5 h. After the incubation, 8 μL of LiveBLAzer™-FRET B/G substrate mixture (CCF4-AM) was loaded into cells in the absence of direct strong lighting, covered, and incubated at room temperature for 2 h.
For orientation: Reporter assays use an easily measured gene product as a stand-in for the process of interest.

Another assay addresses α1-adrenoceptor. Description: Competitive radioligand-binding assay, [3H]prazosin. Also noted: species or system rat. The method, then: as §1, §2

The results in this text go back to article PMC10539439 (Pharmacological Reports, 2023).

Values joined by “and” are separate entries in the source; they are usually repeats but may differ in a detail not shown here. Equal entries are not always repeated. Where two headings read alike, the source gives them in different places.

On to `CNC[C@H](O)c1cccc(O)c1` [Phenylephrine], for which the CPM is 141 CPM and 116 CPM and 96 CPM and 109 CPM and 123 CPM and 92 CPM on α2-adrenoceptor (log of molar concentration -5); 126 CPM and 136 CPM and 132 CPM and 152 CPM and 190 CPM and 224 CPM at α2-adrenoceptor (log of molar concentration -6); 392 CPM and 260 CPM and 300 CPM and 297 CPM and 293 CPM on α2-adrenoceptor (log of molar concentration -7); 433 CPM and 441 CPM and 410 CPM and 390 CPM and 339 CPM and 367 CPM at α2-adrenoceptor (log of molar concentration -8); 380 CPM and 398 CPM and 394 CPM and 410 CPM and 367 CPM and 391 CPM at α2-adrenoceptor (log of molar concentration -9); 502 CPM and 429 CPM and 290 CPM and 400 CPM and 415 CPM and 423 CPM on α2-adrenoceptor (log of molar concentration -10).
Take `COC(=O)[C@@H]1[C@H]2C[C@H]3c4[nH]c5ccccc5c4CCN3C[C@@H]2CC[C@@H]1O` [Yohimbine]: the “% of max response” value was 99.193% and 99.631% on α2A-adrenoceptor (antagonist vs brimonidine EC80, concentration 1e-11); 89.6162% on α2A-adrenoceptor (antagonist vs brimonidine EC80, concentration 1e-10); 70.6442% and 68.4607% at α2A-adrenoceptor (antagonist vs brimonidine EC80, concentration 1e-9); 17.048% and 15.1589% on α2A-adrenoceptor (antagonist vs brimonidine EC80, concentration 1e-8); 6.64% on α2A-adrenoceptor (antagonist vs brimonidine EC80, concentration 1e-7); 8.3079% at α2A-adrenoceptor (antagonist vs brimonidine EC80, concentration 1e-6).
Turning to `Cc1ccc(N(CC2=NCCN2)c2cccc(O)c2)cc1` [Phentolamine], the inhibition constant (Ki) (as a rule, the equilibrium dissociation constant of an inhibitor or competing ligand from its target) on α1-adrenoceptor (ADRA1, experiment 1, 2, 3, read-out: Ki, single experiments) is 14.9 nM and 9.23 nM and 10.1 nM; on α1-adrenoceptor ([3H] prazosin, rat cerebral cortex, mean ± SEM, n = 3, read-out: Ki), 11.3 ± 1.7 nM.
As to `Brc1c(NC2=NCCN2)ccc2nccnc12` [brimonidine], the “% of max response” value at α2A-adrenoceptor (agonist, concentration 1e-11) was -0.4968% and 2.419% and -2.234% and 0.961%; on α2A-adrenoceptor (agonist, concentration 1e-10) it was 2.567% and 0.2495% and -1.378% and 1.408%; on α2A-adrenoceptor (agonist, concentration 1e-9), 4.21% and 2.461% and -0.5064% and 3.335%; at α2A-adrenoceptor (agonist, concentration 1e-8) it was 48.0757% and 59.1796% and 30.9499% and 53.6276%; at α2A-adrenoceptor (agonist, concentration 1e-7), 88.9964% and 81.4266%.
